This note sets out measurements from US8431563B2 (priority 2010, dated 2013).

pEC50: −log10 of the molar value. Structures can show the parent of a compound that is named as a salt.

Assay [1] has as its target T1, GKRP (Glucokinase Regulatory Protein) with human His-hepatic GK (Homo sapiens, UniProt Q14397).
T1 sequence (Q14397 1-625): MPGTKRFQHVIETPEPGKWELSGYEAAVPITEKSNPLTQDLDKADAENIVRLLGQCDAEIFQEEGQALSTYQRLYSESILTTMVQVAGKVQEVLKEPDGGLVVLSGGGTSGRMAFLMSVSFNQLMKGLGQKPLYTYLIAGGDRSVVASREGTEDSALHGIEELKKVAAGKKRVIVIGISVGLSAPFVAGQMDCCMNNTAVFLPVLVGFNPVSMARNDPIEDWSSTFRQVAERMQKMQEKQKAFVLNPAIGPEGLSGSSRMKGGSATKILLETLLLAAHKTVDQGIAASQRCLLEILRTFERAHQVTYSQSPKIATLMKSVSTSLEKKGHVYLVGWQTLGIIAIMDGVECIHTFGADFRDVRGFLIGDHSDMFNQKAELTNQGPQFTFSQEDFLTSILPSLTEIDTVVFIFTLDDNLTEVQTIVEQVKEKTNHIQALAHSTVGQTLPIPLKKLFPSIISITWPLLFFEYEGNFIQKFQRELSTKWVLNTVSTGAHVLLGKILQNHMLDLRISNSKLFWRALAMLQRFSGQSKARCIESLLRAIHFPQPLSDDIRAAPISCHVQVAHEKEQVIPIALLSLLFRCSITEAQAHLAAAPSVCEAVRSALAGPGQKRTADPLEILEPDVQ
Description: GKRP NADPH Coupled Assay. It is filed as biochemical. The note with it: GK-GKRP EC50 (NADPH-coupled), indirect measure of glucose-6-phosphate, fluorescence; 1 μM GKRP (10×), 20 nM GK (5×). The method, then:
(§1) This assay is used to directly measure the formation of ^13C-glucose-6-phosphate from ^13C-glucose by liquid chromatography-mass spectrometry (LC MS/MS). Begin by preparing the following solutions: Compound Buffer (CB): 50 mM Tris, pH 7.5/4 mM MgCl2/6% DMSO/fresh 10 mM DTT from 1M frozen stock. Enzyme Buffer (EB): 50 mM Tris, pH 7.5/4 mM MgCl2/6% DMSO/fresh 0.1% BSA/fresh 0.01% Brij-35 (10% BSA and 1% Brij-35 stock). GK (Glucokinase) Working Stock (5×): Dilute human His-hepatic GK to 30 nM in EB buffer. […] After 30 minutes add 10 μl of GK Working Stock (5×). Re-seal the plate and incubate for another 30 minutes at room temperature while mixing. After the second 30 minutes, stop the reaction by the addition of 50 μl of 100% acetonitrile, seal, and mix for 5-10 minutes. Run 10 μl of this sample through the LC MS/MS (API 3200, Applied Biosystems Inc., Carlsbad, Calif.).
This assay is used as an indirect measure of glucose-6-phosphate (G6P) formed from glucose due to the enzymatic activity of glucokinase. Assay format is the same as for GKRP LC MS/MS Biochemical Assay with the following exceptions. GK Working Stock (5×): Dilute human His-hepatic GK to 20 nM in EB buffer. Stop & Detection Reagent (2×): Dilute β-nicotinamide adenine dinucleotide phosphate sodium salt (β-NADP) (Aldrich-Sigma, St. Louis, Mo.) to 2 mM from 100 mM stock (stock in 10 mM Tris, pH 9.2) and dilute glucose-6-phosphate dehydrogenase (Aldrich-Sigma, St. Louis, Mo.) to 0.04 Unit/μl from 10 Unit/μl (stock in 10 mM Tris pH 7.5/0.05% Brij-35) in 0.2 M Tris, pH 9.2/8% DMSO. After the initial 30 minute incubation add 10 μl of 20 nM GK diluted in EB (5×). Re-seal the plate and incubate for another 1 hour at room temperature while mixing. After 1 hour remove the seal and add 50 μl of Stop & Detection Reagent and incubate for 5 minutes at room temperature while mixing.

In assay [2] the target is T1, GKRP (Glucokinase Regulatory Protein) with human His-hepatic GK. Description: GKRP LC MS/MS Biochemical Assay. The note with it: 13C-glucose-6-phosphate formation, 1 μM GKRP (10×), 30 nM GK (5×). The procedure: GKRP LC MS/MS Biochemical Assay
as §1

Assay [3] has the same target. In words: biochemical. The note with it: 13C-glucose-6-phosphate formation; 280 nM GKRP (10×), 30 nM GK (5×); read-out: GK-GKRP EC50 (LC MS/MS-2). In a few lines:
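Human His-tagged hepatic GK (30 nM in the 5× working stock) in 50 mM Tris pH 7.5, 4 mM MgCl2, 6% DMSO with DTT, BSA and Brij-35. Enzyme was added after a 30 min step and reacted 30 min at room temperature. The reaction was stopped with acetonitrile and 13C-glucose-6-phosphate formed from 13C-glucose was quantified by LC MS/MS.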

Setting [4] is: read-out: GK-GKRP EC50 (LC MS/MS).

For `CC(O)(c1ccc(N2CCN(S(=O)(=O)c3cccs3)CC2Cc2ccccc2F)cc1)C(F)(F)F` (mixture of isomers) [Example 38, 1,1,1-trifluoro-2-(4-(2-(2-fluorobenzyl)-4-(2-thiophenylsulfonyl)-1-piperazinyl)phenyl)-2-propanol], the pEC50 is 6.29 in assay [1] and 6.07 in assay [2] (GK-GKRP EC50 (LC MS/MS)). Take `CC(O)(c1ccc(N2CCN(S(=O)(=O)c3cccs3)C[C@@H]2Cn2ccc3nccnc32)cc1)C(F)(F)F` (mixture of isomers) [Example 171, 2-(4-((S)-2-((5H-pyrrolo[2,3-b]pyrazin-5-yl)methyl)-4-(thiophen-2-ylsulfonyl)piperazin-1-yl)phenyl)-1,1,1-trifluoro-2-propanol]: the pEC50 in assay [1] is 6.19; in assay [3] it was 6.10.

`O=S(=O)(c1ccccc1)N1CCN(c2ccc(C(O)(C(F)(F)F)C(F)(F)F)cn2)CC1` [Example 22, 1,1,1,3,3,3-hexafluoro-2-(6-(4-(phenylsulfonyl)-1-piperazinyl)-3-pyridinyl)-2-propanol]: the pEC50 in assay [1] is 5.56; in assay [2] (GK-GKRP EC50 (LC MS/MS)), 5.68.

`O=S(=O)(c1nccs1)N1CCN(c2ccc(C(O)(C(F)(F)F)C(F)(F)F)cc2)CC1` [Example 33, 1,1,1,3,3,3-hexafluoro-2-(4-(4-(1,3-thiazol-2-ylsulfonyl)-1-piperazinyl)phenyl)-2-propanol trifluoroacetate]: the pEC50 was 6.18 in assay [1] and 6.07 in assay [2] (GK-GKRP EC50 (LC MS/MS)).

With `CC[C@H]1CN(S(=O)(=O)c2cccs2)CCN1c1ccc(C(O)(C(F)(F)F)C(F)(F)F)cc1` [Example 63, 2-(4-((2S)-2-ethyl-4-(2-thiophenylsulfonyl)-1-piperazinyl)phenyl)-1,1,1,3,3,3-hexafluoro-2-propanol], the values for the pEC50 in assay [1] and in assay [2] (GK-GKRP EC50 (LC MS/MS)) were 6.17 and 5.86, respectively.

As for `C[C@H]1CN(S(=O)(=O)c2cccs2)CCN1c1ccc(C(O)(CO)C(F)(F)F)cc1` (mixture of isomers) [Example 67, 2-(4-((2S)-2-methyl-4-(2-thiophenylsulfonyl)-1-piperazinyl)phenyl)-3,3,3-trifluoro-1,2-propanediol], the pEC50 in assay [2] (setting [4]) was 6.17. On to `CC(O)(c1ccc(N2CCN(S(=O)(=O)c3cccs3)CC2Cc2cccc(F)c2)cc1)C(F)(F)F` (mixture of isomers) [Example 39, 1,1,1-trifluoro-2-(4-(2-(3-fluorobenzyl)-4-(2-thiophenylsulfonyl)-1-piperazinyl)phenyl)-2-propanol], for which the results for the pEC50 in assay [1] and in assay [2] (GK-GKRP EC50 (LC MS/MS)) were 6.10 and 5.96, respectively. On the same counts, the results for `CC(O)(c1ccc(N2CCN(S(=O)(=O)c3cccs3)CC2c2cc(Cl)ccc2Cl)cc1)C(F)(F)F` (mixture of isomers) [Example 13, 2-(4-(2-(2,5-dichlorophenyl)-4-(2-thiophenylsulfonyl)-1-piperazinyl)phenyl)-1,1,1-trifluoro-2-propanol] are 5.58 and 5.71.

On to `O=S(=O)(c1cccs1)N1CCN(c2ccc(C(O)(CO)C(F)(F)F)cc2)CC1` (single isomer, unassigned) [Example 66 Peak #2, 3,3,3-trifluoro-2-(4-(4-(2-thiophenylsulfonyl)-1-piperazinyl)phenyl)-1,2-propanediol], for which, in assay [2] (setting [4]), the pEC50 is 5.90.

In assay [2] (GK-GKRP EC50 (LC MS/MS)), `CC(O)(c1ccc(N2CCN(S(=O)(=O)c3nccs3)CC2)cc1)C(F)(F)F` (racemic) [Example 32, 1,1,1-trifluoro-2-(4-(4-(1,3-thiazol-2-ylsulfonyl)-1-piperazinyl)phenyl)-2-propanol trifluoroacetate] had a pEC50 of 5.32.

In the case of `C[C@H]1COCCN1C[C@H]1CN(S(=O)(=O)c2ccc(N)nc2)CCN1c1ccc(C(O)(C(F)(F)F)C(F)(F)F)cc1` [Example 124, 2-(4-((2S)-4-((6-amino-3-pyridinyl)sulfonyl)-2-(((3S)-3-methyl-4-morpholinyl)methyl)-1-piperazinyl)phenyl)-1,1,1,3,3,3-hexafluoro-2-propanol], the results for the pEC50 in assay [1] and in assay [3] were 9.00 and 7.74, respectively. On the same counts, the results for `CC(O)(c1ccc(N2CCN(S(=O)(=O)c3cccs3)C[C@@H]2Cn2ccc3cccnc32)cc1)C(F)(F)F` (mixture of isomers) [Example 172, 2-(4-((S)-2-((1H-pyrrolo[2,3-b]pyridin-1-yl)methyl)-4-(thiophen-2-ylsulfonyl)piperazin-1-yl)phenyl)-1,1,1-trifluoro-2-propanol] are 6.60 and 6.60. On to `O=S(=O)(c1cccs1)N1CCN(c2ccc(C(O)(CO)C(F)(F)F)cc2)[C@@H](Cc2ccccc2)C1` (single isomer, unassigned) [Example 68 Peak #1], for which, in assay [2] (GK-GKRP EC50 (LC MS/MS)), the pEC50 was 6.06. As to `CC(O)(c1ccc(N2CCN(S(=O)(=O)c3cccs3)C[C@@H]2Cn2ccnc2)cc1)C(F)(F)F` (mixture of isomers) [Example 170, 2-(4-((S)-2-((1H-imidazol-1-yl)methyl)-4-(thiophen-2-ylsulfonyl)piperazin-1-yl)phenyl)-1,1,1-trifluoro-2-propanol], the pEC50 in assay [1] was 6.12; in assay [3], 6.03. `O=S(=O)(c1cccs1)N1CCN(c2ccc(C(O)(CO)C(F)(F)F)cc2)[C@@H](Cc2ccccc2)C1` (single isomer, unassigned) [Example 68 Peak #2]: the pEC50 in assay [2] (GK-GKRP EC50 (LC MS/MS)) is 7.03. Take `CC(O)(c1ccc(N2CCN(S(=O)(=O)c3cccs3)CC2CC2CCOCC2)cc1)C(F)(F)F` (single isomer, unassigned) [Example 37 Peak #4, 1,1,1-trifluoro-2-(4-(2-(tetrahydro-2H-pyran-4-ylmethyl)-4-(2-thiophenylsulfonyl)-1-piperazinyl)phenyl)-2-propanol]: in assay [1], the pEC50 was below 4.30. `C[C@H]1CN(S(=O)(=O)c2nccs2)CCN1c1ccc(C(C)(O)C(F)(F)F)cc1` (single isomer, unassigned) [Example 34 Peak #1] showed a pEC50 in assay [1] of 5.60. With `CC(O)(c1ccc(N2CCN(S(=O)(=O)c3ccccc3)CC2)cc1)C(F)(F)F` (single isomer, unassigned) [Example 24 Peak #2, 1,1,1-trifluoro-2-(4-(4-(phenylsulfonyl)-1-piperazinyl)phenyl)-2-propanol], the pEC50 in assay [2] (GK-GKRP EC50 (LC MS/MS)) is 5.52. Turning to `O=S(=O)(c1cccs1)N1CCN(c2ccc(C(O)(CO)C(F)(F)F)cc2)CC1` (single isomer, unassigned) [Example 66 Peak #1, 3,3,3-trifluoro-2-(4-(4-(2-thiophenylsulfonyl)-1-piperazinyl)phenyl)-1,2-propanediol], the pEC50 in assay [2] (setting [4]) was 5.35. In turn, `C[C@H]1CN(S(=O)(=O)c2ccoc2)CCN1c1ccc(C(C)(O)C(F)(F)F)cc1` (stereo partly drawn) [Example 30, 1,1,1-trifluoro-2-(4-((2S)-4-(3-furanylsulfonyl)-2-methyl-1-piperazinyl)phenyl)-2-propanol] showed a pEC50 in assay [1] of 5.51. As for `O=S(=O)(c1ccccc1)N1CCN(c2ncc(C(O)(C(F)(F)F)C(F)(F)F)cn2)CC1` [Example 23, 1,1,1,3,3,3-hexafluoro-2-(2-(4-(phenylsulfonyl)-1-piperazinyl)-5-pyrimidinyl)-2-propanol], in assay [2] (GK-GKRP EC50 (LC MS/MS)), the pEC50 was 5.88.
